Entries after “also recorded” stand apart in the source; their conditions may differ. Ends that are not written are not given here.
Assays:
Assay type in all cases: cell-based
[1] = molecular target: T1, CRH-R1 (Homo sapiens, UniProt P34998); experiment: ACTH suppression test using a CRH-R1 inhibitor; conditions: CRH-R1 inhibitor 10^−5 M added at the time of stimulation with CRH addition
T1 construct: it was confirmed, by analysis by the fluorescent antibody method, that ACTH positive cells were CRH-R1 positive; endogenous in cells; host or cells: pituitary tissue (ACTH-positive cells) differentiated from human iPS cells, 201B7 strain
T1 sequence (P34998 24-415): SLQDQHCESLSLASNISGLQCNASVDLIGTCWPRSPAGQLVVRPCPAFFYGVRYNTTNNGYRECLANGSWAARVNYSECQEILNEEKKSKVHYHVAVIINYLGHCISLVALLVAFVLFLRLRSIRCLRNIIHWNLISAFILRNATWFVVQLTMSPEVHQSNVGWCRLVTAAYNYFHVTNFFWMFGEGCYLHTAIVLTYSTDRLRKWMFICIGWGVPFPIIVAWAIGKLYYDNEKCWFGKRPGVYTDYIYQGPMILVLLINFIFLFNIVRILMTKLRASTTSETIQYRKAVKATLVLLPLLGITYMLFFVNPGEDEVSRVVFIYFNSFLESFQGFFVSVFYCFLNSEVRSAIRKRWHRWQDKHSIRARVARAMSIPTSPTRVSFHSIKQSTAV
Experimental: (§1) Human iPS cells (201B7 strain) were cultured under conditions (see column A.2) that were effective for simultaneous maturation of hypothalamus and pituitary. Pituitary tissue and hypothalamic tissue were observed on Day 60 of culture, and ACTH neurons were detected in pituitary tissue. In addition, the amount of ACTH secreted from pituitary tissue was increased by long-term culture (FIG. 19), and it was confirmed that the maturation of pituitary tissue had progressed with the lapse of culture time.
To further evaluate the function of pituitary tissue obtained by culture under the conditions in (1), an ACTH suppression test using a CRH-R1 inhibitor (Antalarmin, NBI2719) was performed (right in FIG. 23). A CRH-R1 inhibitor was added at a dose of 10^−5 M (test group) at the time of stimulation with CRH addition, and the amount of ACTH secreted was compared with that when no CRH-R1 inhibitor was added (control group). As a result of the test, the secretion of ACTH was suppressed by the CRH-R1 inhibitor (left and center in FIG. 23).

[2] = system: human ES cells (KhES-1); experiment: Differentiation induction of human ES cells by SFEBq method, analysed by fluorescent antibody method; conditions: Day 30 of culture
Description: Next, it was examined whether the method can be applied also to human ES cells. Human ES cells (KhES-1) were subjected to maintenance culture by a conventional method on MEF and then used. To monitor differentiation induction into a hypothalamic tissue, KhES-1 wherein a Venus cDNA has been knocked-in into the gene of Rx which is a hypothalamic nerve marker was used. To differentiate human ES cells by Serum-Free Embryonic Body quick method (SFEBq method), human ES cells were dispersed to single cells using an enzyme by the method of Nakano et al. (Cell Stem Cell. 2012 Jun. 14; 10 (6): 771-85), and reaggregated using a low cell adhesive V-bottom 96-well plate (Sumitomo Bakelite Co., Ltd.). Ten thousand (10,000) cells were seeded per well and cultured in a gfCDM differentiation medium at 37° C. under 5% CO2. With the day of seeding defined as Day 0 of differentiation culture, 20 μM Y-27632 (ROCK inhibitor: cell death suppressor at the time of dispersion: Watanabe et al. (Nat Biotechnol. 2007 June; 25 (6): 681-6. Epub 2007 May 27.)) was added from Day 0 to Day 3, and, on and after Day 3 of culture, a half of the medium was exchanged with a differentiation medium free from Y-27632 at a frequency of once every 3 days. Based on the thought that no aggregate was formed due to nutritional deficiency, a small amount of a serum alternative KSR was added to the gfCDM to verify the effect. Specifically, the SFEBq method was performed by mixing 2%, 5%, 10%, and 20% KSR in the gfCDM medium. On and after Day 18, the oxygen partial pressure during culture was set to 40%. The differentiation of the tissue was analyzed by a fluorescent antibody method. Based on the thought that the positional shift to the telencephalon was caused by various growth factors included in KSR, the addition of a bone morphogenetic protein signal transduction pathway activating substance was decided. Specifically, differentiation induction was attempted under the following conditions. […]

[3] = system: AVP neurons induced from human ES cells (KhES-1); experiment: KCl stimulation test of induced AVP neurons (AVP hormone by RIA method); conditions: isotonic solution containing 0.1% potassium chloride for 30 minutes; cells on Day 180 of culture
Description: As a result of continuing suspension culture under the dorsal hypothalamus induction conditions, the expression of Otp and Brn2 (generally, Otp and Brn2 positive hypothalamus is thought to be in the precursor state of AVP neurons) was confirmed on Day 60 of culture (FIG. 6), and a small number of AVP-positive cells were observed on Day 103 of culture (FIG. 7). In order to improve the induction efficiency, the incorporation of dissociation culture, which is considered to be advantageous in neurogenesis, was decided. Specifically, differentiation induction was attempted under the following conditions. Cell aggregates were dispersed, and cells were seeded at 2×10^4 to 40×10^4 cells/cm^2 on glass plates coated with Laminin, Poly-D-Lysine and Matrigel, respectively, and subjected to plane culture in media obtained by adding NT3, BDNF, CNTF, and FBS, respectively, to a DFNB medium. Medium exchange was carried out at a frequency of once every 3 days.
As a result of differentiation induction under the above conditions, the appearance of AVP neurons was confirmed on Day 150 of culture (FIG. 8). […] First, the medium after used for cell culture for 3 days was recovered, and the AVP hormone in the medium was measured by RIA method. […]

[4] = system: pituitary tissue (ACTH neurons) from human iPS cells (201B7 strain); experiment: ACTH stimulation test using CRH; conditions: CRH added at 5 μg/ml; pituitary tissue from human iPS cells (201B7)
Experimental: as §1
In order to evaluate the function of pituitary tissue obtained by culture under the conditions in (1), an ACTH stimulation test using CRH (right in FIG. 21) was performed. The test method was in accordance with the previously reported method (Ozone C et al., Functional anterior pituitary generated in self-organizing culture of human embryonic stem cells. Nat Commun. 2016 Jan. 14; 7: 10351.) (CRH was added at 5 μg/ml). […] In addition, it was confirmed, by analysis by the fluorescent antibody method, that ACTH positive cells were CRH-R1 positive (center in FIG. 21).

[5] = SAG 0.5 μM with BMP signal activating substance 1.5 to 2.0 nM from Day 6

## CCCCN(CC)c1nc(C)nc2c1c(C)c(C)n2-c1c(C)cc(C)cc1C [Antalarmin]
[1]
  amount of ACTH secreted vs control group without CRH-R1 inhibitor: suppressed

## CN[C@H]1CC[C@H](N(Cc2cccc(-c3ccncc3)c2)C(=O)c2sc3ccccc3c2Cl)CC1 [SAG]
[2]; [5]
  differentiation efficiency of hypothalamic precursor cells: exceeded 80%
  marker expression of cell aggregates: co-positive for Rx and Pax6 and Chx10 negative

## [Cl-].[K+] [potassium chloride]
[3]
  response of AVP neurons (AVP hormone secretion) to stimulation: responded well

## CRH: corticotropin releasing hormone, added at 5 μg/ml in the ACTH stimulation test (SEEPPISLDLTFHLLREVLEMARAEQLAQQAHSNRKLMEII; ends and bridges not checked; UniProt P06850 154-194, looked up)
[4]
  ACTH secretion in response to CRH: ACTH was secreted in response to CRH

B1: BMP4: bone morphogenetic protein signal transduction pathway activating substance; a known cytokine (protein, UniProt P12644 293-408, looked up)
Bone morphogenetic protein 4: SPKHHSQRARKKNKNCRRHSLYVDFSDVGWNDWIVAPPGYQAFYCHGDCPFPLADHLNSTNHAIVQTLVNSVNSSIPKACCVPTELSAISMLYLDEYDKVVLKNYQEMVVEGCGCR
[2]; about 3.0 nM from Day 6, KSR-containing gfCDM
  marker expression: Rx as a hypothalamic marker and Pax6 as a dorsal marker became co-positive; also recorded: the retinal marker Chx10 also became positive

— patent US12378518B2, “Differentiation induction from human pluripotent stem cells into hypothalamic neurons” (National University Corporation Nagoya University, priority 2016, dated 2025)
